Reference: patent US7932262B2 (Novartis AG, priority 2006, dated 2011)
pEC50, pIC50: −log10 of the molar value.

Columns and labels:
PDK1 kinase = molecular target: T1, PDK1 kinase (Homo sapiens, UniProt O15530); assay: PDK1 Kinase Alpha Screen Assay; type: biochemical; settings: PDK1 Kinase Alpha Screen Assay; read-out: PDK1 IC50
T1 sequence (O15530 1-556): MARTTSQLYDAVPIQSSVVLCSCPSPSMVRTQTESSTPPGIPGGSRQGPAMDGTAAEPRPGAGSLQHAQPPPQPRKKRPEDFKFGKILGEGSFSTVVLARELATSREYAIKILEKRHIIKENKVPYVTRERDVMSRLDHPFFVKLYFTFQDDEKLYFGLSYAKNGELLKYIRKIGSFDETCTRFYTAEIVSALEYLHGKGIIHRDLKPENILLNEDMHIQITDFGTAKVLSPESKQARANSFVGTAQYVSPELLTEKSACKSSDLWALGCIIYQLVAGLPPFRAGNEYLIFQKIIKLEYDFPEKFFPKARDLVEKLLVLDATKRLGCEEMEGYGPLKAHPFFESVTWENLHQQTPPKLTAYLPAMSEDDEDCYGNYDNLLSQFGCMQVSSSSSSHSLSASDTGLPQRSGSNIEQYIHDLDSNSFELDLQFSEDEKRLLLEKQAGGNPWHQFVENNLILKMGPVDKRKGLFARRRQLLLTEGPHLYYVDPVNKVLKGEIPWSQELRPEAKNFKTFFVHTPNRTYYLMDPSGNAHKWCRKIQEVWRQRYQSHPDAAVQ
Protocol: 1. PDK1 Kinase Alpha Screen Assay
Reagents/Concentrations: The PDK1-4 peptide substrate, biotin-[…]-NH2, was purchased from the Tufts University Core Facility. The final concentration of PDK1-4 peptide substrate was 50 nM The ATP substrate (Adenosine-5′-triphosphate) was purchased from Roche Diagnostics. The final concentration of ATP substrate was 10 uM. Phospho-(Ser/Thr) PKA substrate antibody was purchased from Cell Signaling Technology. The final concentration of antibody was 0.3 mg/ml. The Alpha Screen Protein A detection kit containing donor and acceptor beads was purchased from PerkinElmer Life Sciences. The final concentration of both donor and acceptor beads was 25 μg/ml. Alpha Screen was used for detection. The biotinylated-PDK1-4 peptide was phosphorylated by PDK1 kinase using the ATP substrate. The biotinylated-PDK1-4 peptide substrate was bound to the streptavidin coated donor bead. The antibody was bound to the protein A coated acceptor bead. The antibody bound to the phosphorylated form of the biotinylated PDK-1 peptide substrate, bringing the donor and acceptor beads into close proximity. Laser irradiation of the donor bead at 680 nm generated a flow of short-lived singlet oxygen molecules. When the donor and acceptor beads were in close proximity, the reactive oxygen generated by the irradiation of the donor beads initiated a luminescence/fluorescence cascade in the acceptor beads. This process led to a highly amplified signal with output in the 530-620 nm range. Assays were carried out in 50 mM Tris, pH=7.5, 10 mM MgCl2, 0.1% Bovine Serum Albumin, 0.01% Tween-20, 2 mM Dithiolthreitol, 2.5% Dimethyl Sulfoxide. Reactions were stopped by adding 50 mM Tris, pH=7.5, 90 mM EDTA, 0.1% Bovine Serum Albumin, 0.01% Tween-20.
Procedure: To 10 μl of PDK1-4 peptide, 0.5 μl of test compound in dimethyl sulfoxide is added. PDK1 kinase and ATP are mixed. 10 μl of the PDK1 kinase/ATP mix is added to start the reaction. The reaction is allowed to proceed for 3-18 hours. The reactions are stopped by adding 10 μl of the EDTA-containing stop buffer. Beads are mixed with antibody. 25 μl of the bead/antibody mix is added to the stopped reactions. Plates are incubated at room temperature overnight to allow for detection development before being read. The assay is run is a 384-well format. […]

PC-3 cells = assay: Cell Proliferation Assay (Cell Titer Glo), PC-3 cell line; type: cell-based; settings: Homo sapiens, PC-3, Cell Proliferation Assay, PC3; read-out: CPEC50 PC3
In short: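 PC-3 cells, 1000 cells/well, left to adhere 3-5 h, then exposed for 3 days at 37° C to compounds as 1:3 serial dilutions from 500× DMSO stocks diluted in growth medium. Medium then replaced with fresh medium and viability read by Cell Titer Glo luminescence.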

pIC50 (PDK1 kinase) | pEC50 (PC-3 cells) | SMILES
> 5.30 | 5.00 to 5.30 | Cc1cc(Nc2ncc3ccc(OC4CCN(C(C)C)CC4)cc3n2)ccc1F [Compound 327, N-(4-fluoro-3-methylphenyl)-7-(1-isopropyl-piperidin-4-yloxy)-quinazolin-2-amine]
> 5.30 | > 5.30 | CC(C)N1CCC(c2c(O)ccc3cnc(Nc4ccc(N5CCOCC5)cc4)nc23)CC1 [Compound 328, 8-(1-isopropylpiperidin-4-yl)-2-(4-morpholinophenylamino)quinazolin-7-ol]
> 5.30 | > 5.30 | CC(C)NC(=O)c1ccc(Nc2ncc3ccc(OC4CCN(C(C)C)CC4)cc3n2)cc1 [Compound 329, N-isopropyl-4-(7-(1-isopropylpiperidin-4-yloxy)quinazolin-2-ylamino)benzamide]
> 5.30 | 5.00 to 5.30 | O=c1[nH]c2ccc(Nc3ncc4ccc(OC5CCNCC5)cc4n3)cc2[nH]1 [Compound 330, 5-(7-(piperidin-4-yloxy)-quinazolin-2-ylamino]-1H-benzo[d]imidazol-2(3H)-one]
> 5.30 | > 5.30 | CC(C)N1CCC(Oc2ccc3cnc(Nc4ccc(S(C)(=O)=O)cc4)nc3c2)CC1 [Compound 331, 7-(1-isopropylpiperidin-4-yloxy)-N-(4-(methylsulfonyl)phenyl)quinazolin-2-amine]
> 5.30 | > 5.30 | O=S(=O)(c1ccc(Nc2ncc3ccc(OC4CCNCC4)cc3n2)cc1)N1CCOCC1 [Compound 332]
> 5.30 | > 5.30 | O=S(=O)(c1ccc(Nc2ncc3ccc(OC4CCN(CCF)CC4)cc3n2)cc1)N1CCOCC1 [Compound 333, 7-(1-(2-fluoroethyl)piperidine-4-yloxy)-N-(4-(morpholinosulfonyl)phenyl)quinazolin-2-amine]
> 5.30 | 5.00 to 5.30 | O=S(=O)(c1ccc(Nc2ncc3ccc(OC4CCN(CC(F)F)CC4)cc3n2)cc1)N1CCOCC1 [Compound 334, 7-(1-(2,2-difluoroethyl)piperidin-4-yloxy)-N-(4-(morpholinosulfonyl)phenyl)quinazolin-2-amine]
> 5.30 | > 5.30 | Fc1ccc(Nc2ncc3cccc(OC4CCNCC4)c3n2)cc1 [Compound 335]
> 5.30 | 5.00 to 5.30 | Brc1ccc(OC2CCNCC2)c2nc(Nc3cccc(N4CCOCC4)c3)ncc12 [Compound 336, 5-bromo-N-(3-morpholinophenyl)-8-(piperidin-4-yloxy)quinazolin-2-amine]
> 5.30 | > 5.30 | CC(C)NC(=O)c1ccc(Nc2ncc3c(Br)ccc(OC4CCNCC4)c3n2)cc1 [Compound 337, 4-(5-bromo-8-(piperidin-4-yloxy)quinazolin-2-ylamino)-N-isopropylbenzamide]
> 5.30 | > 5.30 | Clc1cc(Nc2ncc3c(Br)ccc(OC4CCNCC4)c3n2)ccc1N1CCOCC1 [Compound 338, 5-bromo-N-(3-chloro-4-morpholinophenyl)-8-(piperidine-4-yloxy) quinazolin-2-amine]
> 5.30 | > 5.30 | Fc1cc(Nc2ncc3c(Br)ccc(OC4CCNCC4)c3n2)ccc1N1CCOCC1 [Compound 339, 5-bromo-N-(3-fluoro-4-morpholinophenyl)-8-(piperidin-4-yloxy)quinazolin-2-amine]
> 5.30 | 5.00 to 5.30 | Cc1ccc(OC2CCNCC2)c2nc(Nc3ccc(C(=O)NC(C)C)cc3)ncc12 [Compound 340, N-isopropyl-4-(5-methyl-8-(piperidin-4-yloxy)quinazolin-2-ylamino)benzamide]
> 5.30 | 5.00 to 5.30 | O=C(NC1CC1)c1ccc(Nc2ncc3c(Br)ccc(OC4CCNCC4)c3n2)cc1 [Compound 341, 4-(5-bromo-8-(piperidin-4-yloxy)quinazolin-2-ylamino)-N-cyclopropylbenzamide]
> 5.30 | > 5.30 | CC(C)NS(=O)(=O)c1ccc(Nc2ncc3c(Br)ccc(OC4CCNCC4)c3n2)cc1 [Compound 342, 4-(5-bromo-8-(piperidin-4-yloxy)quinazolin-2-ylamino)-N-isopropylbenzenesulfonamide]
> 5.30 | > 5.30 | O=C(c1ccc(Nc2ncc3ccc(-c4cnn(CCF)c4)cc3n2)cc1)N1CCOCC1 [Compound 343, (4-(7-(1-(2-fluoroethyl)-1H-pyrazol-4-yl)quinazolin-2-ylamino)phenyl)(morpholino)methanone]
> 5.30 | > 5.30 | O=C(c1ccc(Nc2ncc3ccc(-c4cn[nH]c4)cc3n2)cc1)N1CCOCC1 [Compound 344, (4-(7-(1H-pyrazol-4-yl)quinazolin-2-ylamino)phenyl)(morpholino)methanone]
> 5.30 | > 5.30 | CN1CCC(Nc2ccc3cnc(Nc4ccc(C(=O)N5CCOCC5)cc4)nc3c2)CC1 [Compound 345, (4-(7-(1-methylpiperidin-4-ylamino)quinazolin-2-ylamino)phenyl)(morpholino)methanone]
> 5.30 | > 5.30 | CN1CCC(Nc2ccc3cnc(Nc4ccc(S(=O)(=O)N5CCOCC5)cc4)nc3c2)CC1 [Compound 346, N7-(1-methylpiperidin-4-yl)-N2-(4-(morpholinosulfonyl)phenyl)quinazoline-2,7-diamine]
> 5.30 | > 5.30 | O=C(c1ccc(Nc2ncc3ccc(NC4CCNCC4)cc3n2)cc1)N1CCOCC1 [Compound 347, morpholino(4-(7-(piperidin-4-ylamino)quinazolin-2-ylamino)phenyl)methanone]
> 5.30 | 5.00 to 5.30 | CN1CCC(CNc2ccc3cnc(Nc4ccc(C(=O)N5CCOCC5)cc4)nc3c2)CC1 [Compound 348]
> 5.30 | > 5.30 | COCCn1cc(-c2ccc3cnc(Nc4ccc(C(=O)N5CCOCC5)cc4)nc3c2)cn1 [Compound 349, (4-(7-(1-(2-methoxyethyl)-1H-pyrazol-4-yl)quinazolin-2-ylamino)phenyl)(morpholino)methanone]
> 5.30 | > 5.30 | CC(C)NS(=O)(=O)c1ccc(Nc2ncc3ccc(NC4CCN(C)CC4)cc3n2)cc1 [Compound 350, N-isopropyl-4-(7-(1-methylpiperidin-4-ylamino)quinazolin-2-ylamino)benzenesulfonamide]
> 5.30 | 5.00 to 5.30 | O=C(c1ccc(Nc2ncc3ccc(NCC4CCNCC4)cc3n2)cc1)N1CCOCC1 [Compound 351, morpholino(4-(7-(piperidin-4-ylmethylamino)quinazolin-2-ylamino)phenyl)methanone]
> 5.30 | 5.00 to 5.30 | O=C(c1ccc(Nc2ncc3ccc(N(CCO)CCO)cc3n2)cc1)N1CCOCC1 [Compound 352, (4-(7-(bis(2-hydroxyethyl)amino)quinazolin-2-ylamino)phenyl)(morpholino)methanone]
> 5.30 | 5.00 to 5.30 | O=C(c1ccc(Nc2ncc3ccc(-c4cnn(CCO)c4)cc3n2)cc1)N1CCOCC1 [Compound 353, (4-(7-(1-(2-hydroxyethyl)-1H-pyrazol-4-yl)quinazolin-2-ylamino)phenyl)(morpholino)methanone]
> 5.30 | > 5.30 | CC(C)NC(=O)c1ccc(Nc2ncc3ccc(NC4CCN(C)CC4)cc3n2)cc1 [Compound 354, N-isopropyl-4-(7-(1-methylpiperidin-4-ylamino)quinazolin-2-ylamino)benzamide]
> 5.30 | > 5.30 | CN1CCC(Nc2ccc3cnc(Nc4ccc(N5CCOCC5)c(Cl)c4)nc3c2)CC1 [Compound 355, N2-(3-chloro-4-morpholinophenyl)-N7-(1-methylpiperidin-4-yl)quinazoline-2,7-dimaine]
